Among the test systems are UO-31; SW-620; CAKI-1; COLO 205; A498; SN12C; HCC 2998; SK-MEL-5; NCI-H23; ACHN; TK-10; K562; HCT-116; RPMI-8226; NCI-H226; NCI-H522; SF-539.
What all share (experiment): growth of human tumour cells (NCI), 48 h

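Growth conditions: 96-well plates. Treatment: test compound, 48 hours, 5 concentrations. Analysis: linear interpolation between bracketing concentrations; unreached endpoints set to highest concentration. GI50 marks 50% less growth.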 Calls of active or inactive are those of the source. Cut-off read from the data, not from the text of the source: active = GI50 up to about 1.1 µM and inactive = higher.

`N#CC1CCCCOCCOCCOCCOCCOCCCCCC1=O` (stereo unspecified): the GI50 in the experiment on UO-31, with SW-620, in the experiment with CAKI-1, in the experiment on COLO 205, in the experiment on A498 and in the experiment on SN12C was > 100 µM (inactive) in each case. The GI50 in the experiment on HCC 2998, in the experiment on SK-MEL-5, with NCI-H23, with ACHN, in the experiment with TK-10 and in the experiment with K562 was > 100 µM (inactive) throughout. For the same molecule, the GI50 in the experiment on HCT-116, with RPMI-8226, in the experiment on NCI-H226 and in the experiment with NCI-H522 was > 100 µM (inactive) each time.
In the case of `CCSc1nnc(CSc2nc(-c3ccccc3)c(-c3ccccc3)[nH]2)n1-c1ccccc1`, the GI50 is 17.1 µM (inactive) in the experiment with UO-31; 16.6 µM (inactive) in the experiment on SW-620; 23.7 µM (inactive) with CAKI-1; 16.1 µM (inactive) in the experiment with COLO 205; 18.5 µM (inactive) in the experiment on A498; 15.8 µM (inactive) in the experiment on SN12C. For the same molecule, the GI50 in the experiment on HCC 2998 is 20.8 µM (inactive); with SK-MEL-5 it was 17.1 µM (inactive); in the experiment on NCI-H23, 21 µM (inactive); in the experiment on ACHN it was 17.2 µM (inactive); in the experiment with TK-10, 22.6 µM (inactive); with K562, 25.3 µM (inactive). The GI50 is 18.2 µM (inactive) with HCT-116, 21.5 µM (inactive) in the experiment on RPMI-8226, 14.1 µM (inactive) in the experiment on NCI-H226 and 16.4 µM (inactive) in the experiment on NCI-H522.
For the molecule `C[C@]12CC/C(=N\O)C=C1CC[C@@H]1C2CC[C@@]2(C)C1CC[C@@H]2OC1CCCCO1` (stereo partly specified), the GI50 with UO-31 is 21.7 µM (inactive); in the experiment with SW-620 it was 18.1 µM (inactive); with CAKI-1, > 10 µM (inactive); in the experiment with COLO 205, 17.4 µM (inactive); in the experiment on A498 it was > 100 µM (inactive); in the experiment with SN12C it was > 10 µM (inactive). The GI50 with HCC 2998 was 15.4 µM (inactive); in the experiment on SK-MEL-5 it was 32.1 µM (inactive); in the experiment with NCI-H23 it was 17.3 µM (inactive); in the experiment on ACHN it was 16.3 µM (inactive); in the experiment on TK-10, 22.8 µM (inactive); in the experiment on K562 it was 19 µM (inactive). For the same molecule, the GI50 in the experiment with HCT-116 is 20.1 µM (inactive); with RPMI-8226, 15.7 µM (inactive); in the experiment on SF-539, > 10 µM (inactive); in the experiment on NCI-H522, 17.4 µM (inactive).
In the case of `CCOC(=O)CC1=Nc2ccccc2SC1`, the GI50 in the experiment with UO-31, in the experiment on SW-620, in the experiment with CAKI-1, in the experiment on COLO 205, in the experiment on A498 and with SN12C was > 100 µM (inactive) throughout. Besides, the GI50 in the experiment with HCC 2998, with SK-MEL-5, in the experiment on NCI-H23, in the experiment on ACHN, in the experiment on TK-10 and with HCT-116 was > 100 µM (inactive) in each case. The GI50 with NCI-H226, in the experiment with SF-539 and in the experiment with NCI-H522 was > 100 µM (inactive) each time.
As to `Cc1cc(Br)cc(C)c1NC(=O)C(=O)C(C(=O)c1ccncc1)C1OC(=O)c2ccccc21` (stereo unspecified), the GI50 in the experiment on UO-31, in the experiment on SW-620, in the experiment with CAKI-1, with COLO 205, in the experiment with A498 and with SN12C was > 100 µM (inactive) in each case. For the same molecule, the GI50 with HCC 2998, in the experiment with NCI-H23, in the experiment with ACHN, in the experiment on TK-10, with K562 and in the experiment on HCT-116 was > 100 µM (inactive) in each case. Further, the GI50 in the experiment with RPMI-8226, in the experiment on NCI-H226 and with NCI-H522 was > 100 µM (inactive) throughout.
Consider `COc1cccc2cc(C)c(C(=O)c3ccccc3)nc12`, for which the GI50 with UO-31, in the experiment with SW-620, in the experiment with CAKI-1, in the experiment on COLO 205, with SN12C and in the experiment with HCC 2998 was > 100 µM (inactive) each time. For the same molecule, the GI50 in the experiment with SK-MEL-5, in the experiment on NCI-H23, in the experiment on ACHN, with TK-10, with K562 and in the experiment on HCT-116 was > 100 µM (inactive) in each case. Moreover, the GI50 in the experiment on RPMI-8226, in the experiment on NCI-H226, in the experiment on SF-539 and with NCI-H522 was > 100 µM (inactive) throughout.
For the molecule `CCCCCCC(=O)OC[n+]1ccc2c(C)c3[nH]c4ccccc4c3c(C)c2c1`, the GI50 in the experiment on UO-31 was 3.42 µM (inactive); with SW-620, 0.31 µM (active); with CAKI-1 it was 1.58 µM (inactive); in the experiment with A498 it was 1.01 µM (active); in the experiment with SN12C, 0.404 µM (active); with HCC 2998 it was 0.826 µM (active). For the same molecule, the GI50 is 1.56 µM (inactive) in the experiment with SK-MEL-5; 0.455 µM (active) with NCI-H23; 0.703 µM (active) in the experiment on ACHN; 3.13 µM (inactive) in the experiment with TK-10; 0.376 µM (active) with HCT-116; 0.0785 µM (active) in the experiment on RPMI-8226. Besides, the GI50 is 1.46 µM (inactive) in the experiment with NCI-H226, 0.646 µM (active) with SF-539 and 1.56 µM (inactive) in the experiment with NCI-H522.
As to `O=C(/C(=C\c1ccc(Cl)cc1)c1ccccc1)c1ccccc1`, the GI50 in the experiment with UO-31 was 65.2 µM (inactive); in the experiment on SW-620 it was 57.8 µM (inactive); in the experiment on COLO 205, > 100 µM (inactive); in the experiment with A498, 65 µM (inactive); with SN12C, > 100 µM (inactive); in the experiment with HCC 2998, 40.5 µM (inactive). Besides, the GI50 in the experiment on NCI-H23 is 72.6 µM (inactive); in the experiment on ACHN it was 38.8 µM (inactive); in the experiment on TK-10 it was > 100 µM (inactive); in the experiment on K562, 54.1 µM (inactive); in the experiment on HCT-116 it was 29.7 µM (inactive); in the experiment on RPMI-8226 it was 38.2 µM (inactive). Moreover, the results for the GI50 in the experiment with NCI-H226, in the experiment with SF-539 and with NCI-H522 were 39.6 µM (inactive), > 100 µM (inactive) and 31.6 µM (inactive), respectively.
Turning to `COC(=O)c1cc(=O)nc2cc3cccccc3n12`, the GI50 with UO-31, with SW-620, in the experiment on COLO 205, with A498, in the experiment with SN12C and with HCC 2998 was > 100 µM (inactive) throughout. Moreover, the GI50 in the experiment with SK-MEL-5, in the experiment with NCI-H23, in the experiment on ACHN, in the experiment with TK-10, in the experiment on K562 and in the experiment on HCT-116 was > 100 µM (inactive) throughout. Besides, the GI50 with RPMI-8226, in the experiment with NCI-H226, in the experiment on SF-539 and with NCI-H522 was > 100 µM (inactive) in each case.
Turning to `O=C(CC1=Nc2nnc(CCCCCCCc3nnc4n3C(=O)C(CC(=O)c3ccc5ccccc5c3)=N4)n2C1=O)c1ccc2ccccc2c1`, the GI50 in the experiment with UO-31 is > 100 µM (inactive); with SW-620 it was > 100 µM (inactive); in the experiment with CAKI-1, > 100 µM (inactive); in the experiment with COLO 205, > 100 µM (inactive); in the experiment with A498, < 0.01 µM (active); in the experiment with SN12C, > 100 µM (inactive). The GI50 in the experiment on HCC 2998, with NCI-H23, in the experiment on ACHN, with TK-10, in the experiment on K562 and in the experiment with HCT-116 was > 100 µM (inactive) throughout. The GI50 in the experiment with RPMI-8226, in the experiment with NCI-H226, in the experiment on SF-539 and in the experiment on NCI-H522 was > 100 µM (inactive) in each case.
For `CCC(=O)NCC1(c2c[nH]c3ccccc23)SCCS1`, the GI50 in the experiment on SW-620, in the experiment on CAKI-1, with COLO 205, with A498, in the experiment on SN12C and in the experiment with HCC 2998 was > 100 µM (inactive) in each case. The GI50 was > 100 µM (inactive) in the experiment on SK-MEL-5; > 100 µM (inactive) with NCI-H23; 82 µM (inactive) with ACHN; > 100 µM (inactive) in the experiment with TK-10; > 100 µM (inactive) with K562; 48.1 µM (inactive) in the experiment on HCT-116. Further, the GI50 with RPMI-8226, with NCI-H226, with SF-539 and in the experiment with NCI-H522 was > 100 µM (inactive) throughout.
`COC(=O)/C(C#N)=C1\CCC(Nc2cccc(C(F)(F)F)c2)N1C` (stereo unspecified): the GI50 in the experiment with UO-31 is 63.1 µM (inactive); in the experiment on SW-620 it was > 100 µM (inactive); in the experiment with CAKI-1 it was > 100 µM (inactive); in the experiment with SN12C it was > 100 µM (inactive); with HCC 2998, > 100 µM (inactive); in the experiment on NCI-H23, 72.1 µM (inactive). Moreover, the GI50 was 61.8 µM (inactive) in the experiment with ACHN; > 100 µM (inactive) with TK-10; 45.8 µM (inactive) in the experiment on K562; > 100 µM (inactive) with HCT-116; > 100 µM (inactive) with RPMI-8226; > 100 µM (inactive) in the experiment with NCI-H226. Also, the GI50 in the experiment with SF-539 and in the experiment with NCI-H522 was > 100 µM (inactive) throughout.
For the molecule `N/N=c1/nc2n(c3ncccc13)C=CNN2`, the GI50 in the experiment on SW-620, in the experiment on CAKI-1, in the experiment with COLO 205, in the experiment with SN12C, in the experiment with HCC 2998 and in the experiment on SK-MEL-5 was > 100 µM (inactive) throughout. The GI50 in the experiment on NCI-H23, in the experiment on ACHN, in the experiment with TK-10, in the experiment with K562, in the experiment with HCT-116 and with RPMI-8226 was > 100 µM (inactive) each time. In addition, the GI50 in the experiment on NCI-H226, in the experiment on SF-539 and in the experiment with NCI-H522 was > 100 µM (inactive) in each case.

Source of the values: ChEMBL document CHEMBL1201862, “PubChem BioAssay data set” (2004).
